Laboratory results from patent publication US9910031B2, “Compositions and methods for modulating c-Rel-dependent cytokine production” (Synta Pharmaceuticals Corporation, priority 2003, dated 2018).

Experiments:
Type in all cases: cell-based, human
IκBβ = experiment: Inducible degradation of IκBβ, Western blot and FACS analysis; conditions: THP-1 and RAW267.4 cells, IFN-γ/LPS or IFN-γ/SAC, 500 nM, 30 min and 2 hrs
Method: IκB degradation is one of the steps in the signaling pathway of NFκB dependent genes. The activity of Compound 2 in inducible degradation of IκBα □ and IκBβ was investigated in THP-1 cells using Western blot and FACS analysis. […] Similar results were observed from the Compound 2 pre-treatment samples in which Compound 2 was added […] before stimulation.

p65 = experiment: Western blot of nuclear p65 in THP-1 cells
Source text: In order to understand this changes, the subcellular localization of NF-κB proteins was investigated using western blot analysis.
Of the transcription factors that have been analyzed, two factors, ICSBP and c-Rel, seem to be affected by Compound 1/Compound 2 treatment. ICSBP binds indirectly to the Ets-2 site. The primary NFκB trans-activator for IL-12 is the c-Rel/p50 heterodimer. Other dimers (p65/p50 and p50/p50) either lack activity or have inhibitory functions. Thus, c-Rel plays a role in IL-12 transcription as a result of both activation through NFκB and its interaction with ICSBP. […] The membranes were blocked with 5% milk in TBST buffer and then incubated with anti-c-Rel, anti-p65, anti-p50, anti-ICSBP or anti-PU-1 antibody (all the antibodies were purchased from Santa Cruz) at a dilution of 1:500 for 1 h at room temperature or overnight at 4° C. The membranes were washed and incubated with Horseradish Peroxidase-conjugated anti-rabbit IgG or anti-mouse IgG (Amersham, England) at a dilution of 1:2000 at room temperature for 1 h.
Compound 2 impairs nuclear translocation of c-Rel and p50. We examined the nuclear translocation kinetics of NF-kB family members in LPS stimulated cells treated with Compound 2. THP1 cells were stimulated with LPS in either the presence or absence of 100 nM Compound 2, and the distribution of the NF-κB Rel family members are determined by immunoblotting nuclear (n.p.) extracts collected at 5 min, 15 min, 30 min, 1 h, 3 h and 6 h post-treatment. In response to LPS stimulation, p50 translocated into the nucleus as early as 5 minutes post-stimulation and accumulates as time goes on (FIG. 7, immunoblots and FIG. 8 densitometry). […] The experiment examining p65 nuclear translocation is shown in FIG. 9 (immunoblots) and FIG. 10 (densitometry). In LPS stimulated cells, p65 translocated into the nucleus as early as 5 minutes post-stimulation and accumulated to maximum levels at 15-30 minutes post-stimulation. Treatment of LPS-stimulated cells with Compound 2 had no effect on the kinetics of p65 nuclear entry.
THP-1 cells were suspended in 20 volumes of buffer A containing 10 mM KCl, 10 mM HEPES (pH 7.9), 1 mM MgCl2, 1 mM dithiothreitol (DTT), 0.1% Nonidet p40 (NP-40), and 0.5 mM phenylmethylsulfonyl fluoride (PMSF) and homogenized and centrifuged at 10,000 rpm at 4 C for 5 min. Nuclear pellets were then suspended in buffer C containing 400 mM NaCl, 20 mM HEPES 9 pH 7.9), 15 mM MgCl2, 0.2 mM EDTA, 1 mM DTT, 25% glycerol, 1 mM PMSF, and 10 ug of leupeptin, 20 ug of pepstatin, and 10 ug/ml antipain, incubated for 30 min at 4 C, and centrifuged at 14,000 rpm for 20 min. The supernatants were dialyzed against buffer D containing 100 mM NaCl, 20 mM HEPES (pH 7.9), 20% glycerol, 1 mM PMSF, and 1 mM DTT. […]

p50 = experiment: ELISA based transcriptional factor-DNA binding activity assay, THP-1 nuclear extracts, p50; conditions: IFN-γ/LPS, 500 nm, 3 hrs
Method: Nuclear extracts were prepared from IFN-γ-primed THP-1 cells that had been treated with or without SAC and incubated in the presence or absence of 1 μM Compound 1 or 10 mM ASA. Isolation of nuclear extracts was accomplished by first suspending THP-1 cells in 20 volumes of buffer A containing 10 mM KCl, 10 mM HEPES (pH 7.9), 1 mM MgCl2, 1 mM dithiothreitol (DTT), 0.1% Nonidet p40 (NP-40), and 0.5 mM phenylmethylsulfonyl fluoride (PMSF) and then homogenizing and centrifuging at 10,000 rpm at 4° C. for 5 min. Nuclear pellets were then suspended in buffer C containing 400 mM NaCl, 20 mM HEPES pH 7.9), 15 mM MgCl2, 0.2 mM EDTA, 1 mM DTT, 25% glycerol, 1 mM PMSF, and 10 μg of leupeptin, 20 μg of pepstatin, and 10 μg of antipain per ml, incubated for 30 min at 4° C., and centrifuge at 14,000 rpm for […]. The supernatants were dialyzed against buffer D containing 100 mM NaCl, 20 mM HEPES (pH 7.9), 20% glycerol, 1 mM PMSF, and 1 mM DTT.
To understand the action of Compound 2 in NF-κB binding, several NF-κB family members, p50, c-Rel and p65 were investigated using an ELISA based transcriptional factor-DNA binding activity assay system. […]

Cc1cccc(C=NNc2cc(N3CCOCC3)nc(OCCc3ccccn3)n2)c1 [Compound 2, N-(3-methyl-benzylidene)-N′-[6-morpholin-4-yl-2-(2-pyridin-2-yl-ethoxy)-pyrimidin-4-yl]-hydrazine]
amount of IκBβ in the cytoplasm, treated vs untreated (IκBβ): no significant difference
amount of p65 in nuclear (p65; 500 nM, 3 hr, relative to untreated cells): significantly increased
nuclear p65 protein (FIG. 4) (p65; THP1, IFN-γ plus LPS or IFN-γ plus SAC): increased
kinetics of p65 nuclear entry (p65; THP1, LPS, 100 nM): no effect
level of nuclear p65 (p65; THP1, LPS, 100 nM, 6 hours, relative to untreated cells): small increase
binding activity of p50 (p50): slightly decreased
